{
  "source": "patent US8106019B2",
  "about": "“CHEC-7 a novel sPLA2 inhibitor” (Philadelphia Health & Education Corporation, priority 2002, dated 2012)",
  "key": {"plasma sPLA2": {"test_system": "plasma sPLA2", "conditions": "LPS 4 mg/kg s.c.; peptide 0.4 mg/kg s.c. 60 min later"}, "human plasma PLA2": {"test_system": "human plasma PLA2", "conditions": "25 nM peptide"}, "PLA2": {"test_system": "PLA2", "conditions": "cited from earlier work"}},
  "data": [
    {"substance": "CAHAQAESC", "values": [
      {"measurement": "survival of neural cells", "setting": "neural cells", "value": "promotes survival of neural cells"}
    ]},
    {"substance": "CHEASQC [CHEC-7]", "values": [
      {"measurement": "LPS-induced increases in sPLA2 activity in plasma", "setting": "plasma sPLA2", "value": "effective in attenuating"},
      {"measurement": "effect on LPS-induced plasma sPLA2 compared with CHEC-9", "setting": "plasma sPLA2", "value": "greater and more sustained effect"},
      {"measurement": "dependence of inhibition on substrate concentration", "setting": "human plasma PLA2", "value": "less effective at the lowest substrate concentrations"},
      {"measurement": "ex vivo inhibition of human plasma PLA2", "setting": "human plasma PLA2; 25% pooled ALS plasma, PED6 substrate", "value": "inhibition"}
    ]},
    {"substance": "PMSF", "values": [
      {"measurement": "PLA2 activity", "setting": "PLA2", "value": "inhibits PLA2 activity"}
    ]}
  ]
}
